Laboratory results from patent US8497283B2, “Autotaxin inhibitors” (Merck Patent GmbH, priority 2009, dated 2013).

target: T1, recombinant autotaxin (Homo sapiens, UniProt Q13822); assay: Autotaxin assay (Amplex Red fluorescence, LPC substrate); type: biochemical; conditions: percent of uninhibited control (100%) at 1E−05 M compound
T1 construct: made in house; host or cells: Hi5 insect cells (baculovirus)
Description: Autotaxin activity is measured indirectly by means of Amplex Red Reagent. In this course, Amplex Red is measured as fluorogenic indicator for generated H2O2. Autotaxin converts substrate lysophosphatidylcholine (LPC) to phosphocholine and lysophosphatidylic acid (LPA). After the conversion phosphocholine is reacted with alkaline phosphatase to obtain inorganic phosphate and choline. During the next step choline is oxidized with choline oxidase to yield betaine, whereby H2O2 is generated. H2O2 reacts with Amplex Red Reagent in the presence of peroxidase (Horseradish peroxidase) in an 1:1 stochiometry and yields highly fluorescent resorufin. The generated fluorescence is measured in a reaction-dependent kinetic mode in order to enable subtraction of fluorescence signals of possible other fluorescent compounds that are not part of the reaction from total measured fluorescence.
1.5 μl of a standard solution or of the compounds of the invention are dissolved in 20 mM Hepes pH 7.2 with maximally 7.7% DMSO in individual concentrations. The resulting solution is pre-incubated together with 10 μl (16 ng) of highly purified recombinant autotaxin in a black 384-hole microtiter plate for 30 min at 22° C.
Thereafter, the reaction is started through the addition of 5 μl L-a-lysophosphatidyl-choline (LPC), whereby the final concentration of LPC is 75 μM. The mixture is incubated for 90 min. at 37° C. After the incubation Amplex Red Reagent, peroxidase (Horseradish peroxidase) and choline oxidase are added. The fluorescence is immediately measured at a wavelength of 612 nm with an excitation wavelength of 485 nm in a “Tecan Ultra multimode” fluorescence reader. The activity of autotaxin is indirectly calculated via the amount of detected generated H2O2.
For IC50 analysis, ten serial 1:3 dilutions starting at 30 μM for each compound were run in duplicates.
IC50 values were calculated on normalized data. For normalization, control wells were added to each assay plate and the signal of uninhibited control wells was set to 100%, whereas the signal inhibited by 500 μM C14 LPA, (Avanti Polar Lipids, Cat#857120P) was set to 0%. Curves were fitted and IC50 values calculated by the following model using proprietory analysis software: Y=Bottom+(100−Bottom)/(1+10^((Log IC50−X)*HillSlope))
Where X is the logarithm of concentration. Y is the response;
Y starts at Bottom and goes to Top with a sigmoid shape.
Protein: Recombinant autotaxin (baculoviral Hi5 expression)
Substrate: L-a-lysophosphatidyl choline (chicken egg); Avanti Polar Lipids #830071P
Standard: C14 LPA, Avanti Polar Lipids, Cat#857120P
Detection Reagent Amplex Red Reagent; Invitrogen #A12222; dissolved in 1.923 ml of DMSO peroxidase Type VI-A (horseradish), Sigma #P6782; dissolved in 7.45 ml of test buffer, Choline Oxidase; Sigma #C5896; dissolved in 2.47 ml test buffer
Detection Reagent Mix: 1:100 dilution of Amplex Red Regent in test buffer
Test buffer: 200 mM Tris-HCl, Merck, Cat #1.08219, pH 7.9; 0.1% BSA, lipid free, Roche Cat#775835

First: O=C(Nc1ccc(C(F)(F)F)cc1)Nc1nc2ccc(C(=O)Nc3ccc4[nH]nnc4c3)cc2s1 [Compound 32, 2-[3-(4-Trifluoromethyl-phenyl)-ureido]-benzothiazole-6-carboxylic acid (1H-benzotriazol-5-yl)-amide]
Second: NC(=O)c1c(NC(=O)Nc2ccc(Cl)cc2)sc2c1CCN(Cc1ccccn1)C2 [Compound 18, 2-[3-(4-Chloro-phenyl)-ureido]-6-pyridin-2-ylmethyl-4,5,6,7-tetrahydro-thieno[2,3-c]pyridine-3-carboxylic acid amide]
The “% CTRL (1E−05)” value of the first is lower: 64% for the first, 88% for the second.

same assay, conditions: ten serial 1:3 dilutions starting at 30 μM, duplicates; 75 μM LPC; values given as upper bounds

`CC(C)c1ccc(NC(=O)Nc2sc3c(c2C(N)=O)CCN(C(=O)c2ccc4[nH]c(=O)oc4c2)C3)cc1` [Compound 7, 2-[3-(4-Isopropyl-phenyl)-ureido]-6-(2-oxo-2,3-dihydro-benzooxazole-6-carbonyl)-4,5,6,7-tetrahydro-thieno[2,3-c]pyridine-3-carboxylic acid amide] and `NC(=O)c1c(NC(=O)Nc2ccc(Cl)cc2)sc2c1CCN(C(=O)c1ccc3[nH]c(=O)oc3c1)C2` [Compound 2, 2-[3-(4-Chloro-phenyl)-ureido]-6-(2-oxo-2,3-dihydro-benzooxazole-6-carbonyl)-4,5,6,7-tetrahydro-thieno[2,3-c]pyridine-3-carboxylic acid amide] cannot be ordered by IC50: < 1 µM for the first, < 1 µM for the second.

`O=C(NCCc1ccc([N+](=O)[O-])cc1)c1[nH]nc2c1CCN(C(=O)c1ccc3[nH]nnc3c1)C2` [Compound 43, 6-(1H-Benzotriazole-5-carbonyl)-4,5,6,7-tetrahydro-2H-pyrazolo[3,4-c]pyridine-3-carboxylic acid [2-(4-nitro-phenyl)-ethyl]-amide] and `O=C(NCCc1ccc(F)cc1)c1[nH]nc2c1CCN(C(=O)c1ccc3[nH]nnc3c1)C2` [Compound 47, 6-(1H-Benzotriazole-5-carbonyl)-4,5,6,7-tetrahydro-2H-pyrazolo[3,4-c]pyridine-3-carboxylic acid [2-(4-fluoro-phenyl)-ethyl]-amide] cannot be ordered by IC50: < 10 µM for the first, < 10 µM for the second.

`O=C(Nc1ccc2c(c1)CCN(C(=O)c1ccc3[nH]nnc3c1)C2)OCc1cc(Cl)cc(Cl)c1` [Compound 48, [2-(1H-Benzotriazole-5-carbonyl)-1,2,3,4-tetrahydro-isoquinolin-6-yl]-carbamic acid 3,5-dichloro-benzyl ester] and `O=C(NCCc1cccc(Cl)c1)c1[nH]nc2c1CCN(C(=O)c1ccc3[nH]nnc3c1)C2` [Compound 42, 6-(1H-Benzotriazole-5-carbonyl)-4,5,6,7-tetrahydro-2H-pyrazolo[3,4-c]pyridine-3-carboxylic acid [2-(3-chloro-phenyl)-ethyl]-amide] cannot be ordered by IC50: < 10 µM for the first, < 30 µM for the second.

`CC(CNC(=O)c1[nH]nc2c1CCN(C(=O)c1ccc3[nH]nnc3c1)C2)c1ccc(Cl)cc1` (stereo not drawn) [Compound 35, 6-(1H-Benzotriazole-5-carbonyl)-4,5,6,7-tetrahydro-2H-pyrazolo[3,4-c]pyridine-3-carboxylic acid [2-(4-chloro-phenyl)-propyl]-amide] and `O=C(NCc1ccc(Cl)cc1)c1[nH]nc2c1CCN(C(=O)c1ccc3[nH]nnc3c1)C2` [Compound 34, 6-(1H-Benzotriazole-5-carbonyl)-4,5,6,7-tetrahydro-2H-pyrazolo[3,4-c]pyridine-3-carboxylic acid 4-chloro-benzylamide] cannot be ordered by IC50: < 10 µM for the first, < 10 µM for the second.

`COC(=O)CC(NC(=O)c1[nH]nc2c1CCN(C(=O)c1ccc3[nH]nnc3c1)C2)c1ccc(C(C)(C)C)cc1` (stereo not drawn) [Compound 63, 3-{[6-(1H-Benzotriazole-5-carbonyl)-4,5,6,7-tetrahydro-2H-pyrazolo[3,4-c]pyridine-3-carbonyl]-amino}-3-(4-tert-butyl-phenyl)-propionic acid methyl ester] and `O=C(NCc1ccc(C(F)(F)F)cc1)c1[nH]nc2c1CCN(C(=O)c1ccc3[nH]nnc3c1)C2` [Compound 61, 6-(1H-Benzotriazole-5-carbonyl)-4,5,6,7-tetrahydro-2H-pyrazolo[3,4-c]pyridine-3-carboxylic acid 4-trifluoromethyl-benzylamide] cannot be ordered by IC50: < 30 µM for the first, < 10 µM for the second.

`O=C(NCc1cc(C(F)(F)F)ccc1F)c1[nH]nc2c1CCN(C(=O)c1ccc3[nH]nnc3c1)C2` [Compound 36, 6-(1H-Benzotriazole-5-carbonyl)-4,5,6,7-tetrahydro-2H-pyrazolo[3,4-c]pyridine-3-carboxylic acid 2-fluoro-5-trifluoromethyl-benzylamide] and `O=C(NCc1ccc(F)c(Br)c1)c1[nH]nc2c1CCN(C(=O)c1ccc3[nH]nnc3c1)C2` [Compound 51, 6-(1H-Benzotriazole-5-carbonyl)-4,5,6,7-tetrahydro-2H-pyrazolo[3,4-c]pyridine-3-carboxylic acid 3-bromo-4-fluoro-benzylamide] cannot be ordered by IC50: < 30 µM for the first, < 1 µM for the second.

`NC(=O)c1c(NC(=O)Cc2cccc(Cl)c2)sc2c1CCN(C(=O)c1ccc3[nH]c(=O)oc3c1)C2` [Compound 13, 2-[2-(3-Chloro-phenyl)-acetylamino]-6-(2-oxo-2,3-dihydro-benzooxazole-6-carbonyl)-4,5,6,7-tetrahydro-thieno[2,3-c]pyridine-3-carboxylic acid amide] and `NC(=O)c1c(NC(=O)Nc2cc(Cl)cc(Cl)c2)sc2c1CCN(C(=O)c1ccc3[nH]c(=O)oc3c1)C2` [Compound 8, 2-[3-(3,5-Dichloro-phenyl)-ureido]-6-(2-oxo-2,3-dihydro-benzooxazole-6-carbonyl)-4,5,6,7-tetrahydro-thieno[2,3-c]pyridine-3-carboxylic acid amide] cannot be ordered by IC50: < 1 µM for the first, < 10 µM for the second.

`O=C(Cc1ccc(Cl)cc1F)Nc1nc2ccc(C(=O)Nc3ccc4[nH]c(=O)oc4c3)cc2s1` [Compound 29, 2-[2-(4-Chloro-2-fluoro-phenyl)-acetylamino]-benzothiazole-6-carboxylic acid (2-oxo-2,3-dihydro-benzooxazol-6-yl)-amide] and `COC(=O)c1c(NC(=O)Nc2ccc(Cl)cc2)sc2c1CCN(C(=O)c1ccc3[nH]c(=O)oc3c1)C2` [Compound 26, 2-[3-(4-Chloro-phenyl)-ureido]-6-(2-oxo-2,3-dihydro-benzooxazole-6-carbonyl)-4,5,6,7-tetrahydro-thieno[2,3-c]pyridine-3-carboxylic acid methyl ester] cannot be ordered by IC50: < 10 µM for the first, < 10 µM for the second.

`NC(=O)c1c(NC(=O)Nc2ccc(Cl)cc2)sc2c1CCN(C(=O)c1cccnc1)C2` [Compound 19, 2-[3-(4-Chloro-phenyl)-ureido]-6-(pyridine-3-carbonyl)-4,5,6,7-tetrahydro-thieno[2,3-c]pyridine-3-carboxylic acid amide] and `CC(C)c1ccc(NC(=O)Nc2sc3c(c2C(N)=O)CCN(C(=O)c2ccc4[nH]nnc4c2)C3)cc1` [Compound 4, 6-(1H-Benzotriazole-5-carbonyl)-2-[3-(4-isopropyl-phenyl)-ureido]-4,5,6,7-tetrahydro-thieno[2,3-c]pyridine-3-carboxylic acid amide] cannot be ordered by IC50: < 10 µM for the first, < 1 µM for the second.

`O=C(Nc1ccc2[nH]nnc2c1)c1[nH]nc2c1CCN(C(=O)OCc1cccc(C(F)(F)F)c1)C2` [Compound 55, 3-(1H-Benzotriazol-5-ylcarbamoyl)-2,4,5,7-tetrahydro-pyrazolo[3,4-c]pyridine-6-carboxylic acid 3-trifluoromethyl-benzyl ester] and `O=C(NCc1ccc(SC(F)(F)F)cc1)c1[nH]nc2c1CCN(C(=O)c1ccc3[nH]nnc3c1)C2` [Compound 49, 6-(1H-Benzotriazole-5-carbonyl)-4,5,6,7-tetrahydro-2H-pyrazolo[3,4-c]pyridine-3-carboxylic acid 4-trifluoromethylsulfanyl-benzylamide] cannot be ordered by IC50: < 1 µM for the first, < 30 µM for the second.

`NC(=O)c1c(NC(=O)Cc2ccc(Cl)cc2F)sc2c1CCN(C(=O)CCc1ccccn1)C2` [Compound 24, 2-[2-(4-Chloro-2-fluoro-phenyl)-acetylamino]-6-(3-pyridin-2-yl-propionyl)-4,5,6,7-tetrahydro-thieno[2,3-c]pyridine-3-carboxylic acid amide] and `COc1ccc(C2CCCN(C(=O)c3[nH]nc4c3CCN(C(=O)c3ccc5[nH]nnc5c3)C4)C2)cc1` (stereo not drawn) [Compound 59, (1H-Benzotriazol-5-yl)-{3-[3-(4-methoxy-phenyl)-piperidine-1-carbonyl]-2,4,5,7-tetrahydro-pyrazolo[3,4-c]pyridin-6-yl}-methanone] cannot be ordered by IC50: < 10 µM for the first, < 30 µM for the second.
